The values below come from patent US20240269298A1, “PHOSPHONYL DERIVATIVE, AND COMPOSITION AND PHARMACEUTICAL APPLICATION THEREOF” (XIZANG HAISCO PHARMACEUTICAL CO., LTD., priority 2021, published 2024).

Read-outs that look alike come from different tables or passages of the source.

The IC50 is the point on the concentration scale where inhibition reaches its midpoint. A word on the AUC(0-t): it is the area under the concentration-time curve up to a stated or last time point. As usually defined, the AUC is concentration integrated over time. A low value points to low exposure. As usually defined, the half-life is the time needed for the level to fall by half in the phase considered. Read a high half-life as slow loss.

Series [1] has as its system NCI-H1975 (EGFR-L858R-T790M) cells. As to the kind of experiment: Inhibitory activity on proliferation of NCI-H1975 (EGFR-L858R-T790M) cells (CTG, 72 h). It counts as cell-based. Conditions: Homo sapiens. In outline:
(§1)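 Cells plated at 1000/well (NCI-H1975, RPMI1640+10% FBS) or 3000/well (A431, DMEM+10% FBS), dosed next day with compounds (0.1% DMSO final) for 72 h at 37 °C, 5% CO2. Viability by CTG luminescence, normalised to vehicle control; IC50 from nonlinear-regression dose-survival curves.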

For the next series, the system named is A431 (EGFR-WT) cells. As to the kind of experiment: Inhibitory activity on proliferation of A431 (EGFR-WT) cells (CTG, 72 h). Conditions: Homo sapiens, A-431. It counts as cell-based. In outline:
as §1

Series [2] in a line: Pharmacokinetic test in mice. It counts as in vivo. The conditions noted are these: male, ICR, mouse, po, administration i.g. (10 mg/kg), plasma. On the procedure:
Test objective: In this experiment, a single dose of test compounds was administered to ICR mice intravenously and intragastrically, the concentrations of the test compounds in plasma of mice were measured, and the pharmacokinetic characteristics and bioavailability of the test compounds in mice were evaluated.
Experimental animals: male ICR mice, 20-25 g, purchased from BEIJING HFK BIOSCIENCE CO., LTD. with the laboratory animal production license number of SCXK (JING) 2019-0008; or purchased from CHENGDU DDOSSY EXPERIMENTAL ANIMALS CO., LTD. (SCXK (CHUAN) 2020-030); or purchased from HUNAN SJA LABORATORY ANIMAL CO., LTD. (SCXK (XIANG) 2019-0004).
Experimental method: on the day of the experiment, ICR mice were randomly grouped according to their body weights. The mice were fasted with water available for 12 to 14 hours one day before the administration, and were fed 4 hours after the administration.
Sampling: before and after the administration, blood was taken from the orbits of the mice under isoflurane anesthesia, and placed in an EDTAK2 centrifuge tube. Centrifugation was carried out at 5000 rpm at 4° C. for 10 min, and the plasma was collected.
Time points for plasma collection in G1&G2 groups: 0, 5 min, 15 min, 30 min, 1h, 2h, 4h, 6h, 8h, and 24 h; • time points for plasma collection in G3 group: 0, 5 min, 15 min, 30 min, 1 h, 2 h, 4 h, 6h, 8h, and 24 h; • before analysis and detection, all samples were stored at −80° C. The samples were analyzed quantitatively by LC-MS/MS.

The mark [3] stands for this setting: read-out: IC50 (value in brackets).

With `COc1cc(N2CCC(N3CCN(CC4CCN(c5ccc6c(c5)C(=O)N(C5CCC(=O)NC5=O)C6=O)C4)CC3)CC2)c(-c2cnn(C)c2)cc1Nc1ncc(Br)c(Nc2ccc(-c3ccccc3)cc2P(C)(C)=O)n1` (stereo not drawn) [Compound 76, 5-(3-((4-(1-(4-((5-bromo-4-((3-(dimethylphosphoryl)-[1,1′-biphenyl]-4-yl)amino)pyrimidin-2-yl)amino)-5-methoxy-2-(1-methyl-1H-pyrazol-4-yl)phenyl)piperidin-4-yl)piperazin-1-yl)methyl)pyrrolidin-1-yl)-2-(2,6-dioxopiperidin-3-yl)isoindoline-1,3-dione], the IC50 in series [1] (read-out: IC50 (class symbol)) was less than 100 nM; in series [1] (setting [3]) it was 31 nM; in the series on A431 (EGFR-WT) cells it was no less than 10000 nM. Besides, in series [2], the area under the curve AUC(0-t) came to 19600 ng·h/mL.
With `COc1cc(N2CCN(c3ccc4c(c3)C(=O)N(C3CCC(=O)NC3=O)C4=O)CC2)c(-c2cnn(C)c2)cc1Nc1ncc(Cl)c(Nc2ccc(-c3ccccc3)cc2P(C)(C)=O)n1` (stereo not drawn) [Compound 98, 5-(4-(4-((5-chloro-4-((3-(dimethylphosphoryl)-[1,1′-biphenyl]-4-yl)amino)pyrimidin-2-yl)amino)-5-methoxy-2-(1-methyl-1H-pyrazol-4-yl)phenyl)piperazin-1-yl)-2-(2,6-dioxopiperidin-3-yl)isoindoline-1,3-dione], the IC50 in series [1] (read-out: IC50 (class symbol)) is 100 to 500 nM; in series [1] (setting [3]), 101 nM; in the series on A431 (EGFR-WT) cells, no less than 10000 nM. The molecule further gave an AUC in series [2] of 69800 ng·h/mL. In addition, in series [2], the half-life was 10.9 h.
On to `COc1cc(N2CCC(CN3CCC4(CC3)CCN(c3ccc5c(c3)C(=O)N(C3CCC(=O)NC3=O)C5=O)CC4)CC2)c(-c2cnn(C)c2)cc1Nc1ncc(Cl)c(Nc2ccc(-c3ccccc3)cc2P(C)(C)=O)n1` (stereo not drawn) [Compound 48, 5-(9-((1-(4-((5-chloro-4-((3-(dimethylphosphoryl)-[1,1′-biphenyl]-4-yl)amino)pyrimidin-2-yl)amino)-5-methoxy-2-(1-methyl-1H-pyrazol-4-yl)phenyl)piperidin-4-yl)methyl)-3,9-diazaspiro[5.5]undecan-3-yl)-2-(2,6-dioxopiperidin-3-yl)isoindoline-1,3-dione], for which the values for the concentration for half-maximal inhibition (IC50) (in series [1] (read-out: IC50 (class symbol)); in series [1] (setting [3]); in the series on A431 (EGFR-WT) cells) were less than 100 nM, 32 nM and no less than 10000 nM, respectively. Further, the area under the curve AUC(0-t) in series [2] was determined as 7790 ng·h/mL.
As for `COc1cc(N2CCC(CN3CCC4(CCCN(c5ccc6c(c5)C(=O)N(C5CCC(=O)NC5=O)C6=O)C4)CC3)CC2)c(-c2cnn(C)c2)cc1Nc1ncc(Cl)c(Nc2ccc(-c3ccccc3)cc2P(C)(C)=O)n1` (stereo not drawn) [Compound 89, 5-(9-((1-(4-((5-chloro-4-((3-(dimethylphosphoryl)-[1,1′-biphenyl]-4-yl)amino)pyrimidin-2-yl)amino)-5-methoxy-2-(1-methyl-1H-pyrazol-4-yl)phenyl)piperidin-4-yl)methyl)-2,9-diazaspiro[5.5]undecan-2-yl)-2-(2,6-dioxopiperidin-3-yl)isoindoline-1,3-dione], the IC50 was less than 100 nM in series [1] (read-out: IC50 (class symbol)), 84 nM in series [1] (setting [3]) and no less than 10000 nM with A431 (EGFR-WT) cells. This molecule gave an exposure AUC(0-t) in series [2] of 8430 ng·h/mL.
The matching figures for `COc1cc(N2CCC(N3CCN(CC4CCN(c5ccc6c(c5)C(=O)N(C5CCC(=O)NC5=O)C6=O)CC4)CC3)CC2)c(-c2cnn(C)c2)cc1Nc1ncc(Cl)c(Nc2ccc(-c3ccccc3)cc2P(C)(C)=O)n1` (stereo not drawn) [Compound 58, 5-(4-((4-(1-(4-((5-chloro-4-((3-(dimethylphosphoryl)-[1,1′-biphenyl]-4-yl)amino)pyrimidin-2-yl)amino)-5-methoxy-2-(1-methyl-1H-pyrazol-4-yl)phenyl)piperidin-4-yl)piperazin-1-yl)methyl)piperidin-1-yl)-2-(2,6-dioxopiperidin-3-yl)isoindoline-1,3-dione]: less than 100 nM, 72 nM, no less than 10000 nM and 16300 ng·h/mL.
For the molecule `COc1cc(N2CCC(N3CCN(C4CC5(CCN(c6ccc7c(c6)C(=O)N(C6CCC(=O)NC6=O)C7=O)CC5)C4)CC3)CC2)c(-c2cnn(C)c2)cc1Nc1ncc(Cl)c(Nc2ccc(-c3ccccc3)cc2P(C)(C)=O)n1` (stereo not drawn) [Compound 91], the half-maximal inhibitory concentration (IC50) in series [1] (read-out: IC50 (class symbol)) was less than 100 nM; in series [1] (setting [3]) it was 78 nM; in the series on A431 (EGFR-WT) cells it was no less than 10000 nM. This molecule also yielded an AUC(0-t) in series [2] of 7580 ng·h/mL.
Take `COc1cc(N2CCC3(CCN(c4ccc5c(c4)C(=O)N(C4CCC(=O)NC4=O)C5=O)CC3)CC2)c(-c2cnn(C)c2)cc1Nc1ncc(Br)c(Nc2ccc(F)cc2P(C)(C)=O)n1` (stereo not drawn) [Compound 163, 5-(9-(4-((5-bromo-4-((2-(dimethylphosphoryl)-4-fluorophenyl)amino)pyrimidin-2-yl)amino)-5-methoxy-2-(1-methyl-1H-pyrazol-4-yl)phenyl)-3,9-diazaspiro[5.5]undecan-3-yl)-2-(2,6-dioxopiperidin-3-yl)isoindoline-1,3-dione]: the IC50 in series [1] (read-out: IC50 (class symbol)) was less than 100 nM; in series [1] (setting [3]), 76 nM; with A431 (EGFR-WT) cells it was no less than 10000 nM. In addition, the AUC in series [2] turned out to be 93100 ng·h/mL. The molecule further had a half-life in series [2] of 6.68 h.
As to `COc1cc(N2CCC(N3CCN(CC4CCN(c5cc6c(cc5F)C(=O)N(C5CCC(=O)NC5=O)C6=O)CC4)CC3)CC2)c(-c2cnn(C)c2)cc1Nc1ncc(Br)c(Nc2ccc(-c3ccccc3)cc2P(C)(C)=O)n1` (stereo not drawn) [Compound 87, 5-(4-((4-(1-(4-((5-bromo-4-((3-(dimethylphosphoryl)-[1,1′-biphenyl]-4-yl)amino)pyrimidin-2-yl)amino)-5-methoxy-2-(1-methyl-1H-pyrazol-4-yl)phenyl)piperidin-4-yl)piperazin-1-yl)methyl)piperidin-1-yl)-2-(2,6-dioxopiperidin-3-yl)-6-fluoroisoindoline-1,3-dione], the IC50 is less than 100 nM in series [1] (read-out: IC50 (class symbol)), 45 nM in series [1] (setting [3]) and no less than 10000 nM in the series with A431 (EGFR-WT) cells. Besides, the AUC(0-t) in series [2] is 2340 ng·h/mL.
In the case of `COc1cc(N2CCC(N3CCN(CC4CCN(c5ccc6c(c5)C(=O)N(C5CCC(=O)NC5=O)C6=O)CC4)CC3)CC2)c(-c2cnn(C)c2)cc1Nc1ncc(Cl)c(Nc2ccc3ccccc3c2P(C)(C)=O)n1` (stereo not drawn) [Compound 72, 5-(4-((4-(1-(4-((5-chloro-4-((1-(dimethylphosphoryl)naphthalen-2-yl)amino)pyrimidin-2-yl)amino)-5-methoxy-2-(1-methyl-1H-pyrazol-4-yl)phenyl)piperidin-4-yl)piperazin-1-yl)methyl)piperidin-1-yl)-2-(2,6-dioxopiperidin-3-yl)isoindoline-1,3-dione], the IC50 in series [1] (read-out: IC50 (class symbol)) is less than 100 nM; in series [1] (setting [3]) it was 31 nM; with A431 (EGFR-WT) cells, no less than 10000 nM. In series [2], this molecule yielded an exposure AUC(0-t) of 16400 ng·h/mL.
The matching figures for `COc1cc(N2CCC(CN3CCC4(CC3)CCN(c3ccc5c(c3)C(=O)N(C3CCC(=O)NC3=O)C5=O)CC4)CC2)c(-c2cnn(C)c2)cc1Nc1ncc(Br)c(Nc2ccc(-c3ccccc3F)cc2P(C)(C)=O)n1` (stereo not drawn) [Compound 95, 5-(9-((1-(4-((5-bromo-4-((3-(dimethylphosphoryl)-2′-fluoro-[1,1′-biphenyl]-4-yl)amino)pyrimidin-2-yl)amino)-5-methoxy-2-(1-methyl-1H-pyrazol-4-yl)phenyl)piperidin-4-yl)methyl)-3,9-diazaspiro[5.5]undecan-3-yl)-2-(2,6-dioxopiperidin-3-yl)isoindoline-1,3-dione]: less than 100 nM, 49 nM, no less than 10000 nM and 20800 ng·h/mL.
